According to patent US11000033B2, “Ketone or oxime compound, and herbicide” (NISSAN CHEMICAL CORPORATION, priority 2014, dated 2021):

Key:
Assay type in all cases: in vivo
Scirpus juncoides = assay: Test Example 1: herbicidal activity, application before weed generation in submerged conditions (symbol B); conditions: application herbicide amount 320 g/ha
Outline: (§1)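 Compound emulsion was diluted to a set herbicide amount and applied to the water surface on the sowing day, into submerged (4 cm) alluvial-soil pots sown with mixed weed seeds and transplanted 2.5-leaf rice. Pots were held in a 25–30 °C greenhouse, and weeds were scored 0–5 by herbicidal ratio after 3 weeks.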

Monochoria vaginalis [1] = assay: Test Example 1: herbicidal activity, application before weed generation in submerged conditions (symbol C); conditions: application herbicide amount 320 g/ha
Outline: as §1

[2] = system: Echinochloa oryzacola Vasing.; assay: Test Example 2: herbicidal activity, application during weed generation in submerged conditions (symbol A); conditions: Table 23; application herbicide amount 320 g/ha; grade 0-5 by criteria of Test Example 1
Outline: (§2)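 Steps: fill pots with alluvial soil; add water to 4 cm depth; co-sow the three weeds; grow at 25° C. to 30° C. under glass; at 1–2 leaves, dose the floodwater with diluted emulsion; rate damage visually after 3 weeks.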

Monochoria vaginalis [3] = assay: Test Example 2: herbicidal activity, application during weed generation in submerged conditions (symbol C); conditions: Table 23; application herbicide amount 320 g/ha; grade 0-5 by criteria of Test Example 1
Outline: as §2

[4] = system: directly sowed rice plant; assay: Test Example 3: effect on crop by foliage application, Wagner pot (symbol b); conditions: application herbicide amount 320 g/ha
Outline: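 Wagner pot (1/10000 are), alluvial soil, submerged 0.1–0.5 cm; sown E. crus-galli var. crus-galli, L. chinensis, C. difformis, rice; greenhouse 25–30 °C.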

Lolium multiflorum Lam. = assay: Test Example 4: herbicidal effect by soil treatment (symbol K)
Outline: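 Seeds were sown in sterilized diluvial soil, covered with about 1.5 cm of soil, and the soil surface was sprayed with a water-diluted emulsion of the compound at a predetermined rate. Plants grew in a greenhouse at 25° C. to 30° C.; effects were scored visually 3 weeks after application.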

soybean = assay: Test Example 4: effect on crop by soil treatment (symbol d)
Outline: (§3)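 Greenhouse culture at 25° C. to 30° C. followed sowing of seed in spots on sterilized diluvial soil with a soil cover close to 1.5 cm thick.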

wheat [5] = assay: Test Example 4: effect on crop by soil treatment (symbol e)
Outline: as §3

beet = assay: Test Example 4: effect on crop by soil treatment (symbol f)
Outline: as §3

Avena fatua = assay: Test Example 5: herbicidal effect by foliage application, plastic box (symbol I); conditions: 320 g/ha, 3 weeks after application
Outline: (§4)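 Visual herbicidal score, taken three weeks post-application, of seedlings sprayed on the foliage with water-diluted emulsion at a predetermined amount; plants were 14 days old, greenhouse-raised at 25° C. to 30° C.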

Amaranthus retroflexus = assay: Test Example 5: herbicidal effect by foliage application, plastic box (symbol N); conditions: 320 g/ha, 3 weeks after application
Outline: as §4

Veronica persica = assay: Test Example 5: herbicidal effect by foliage application, plastic box (symbol R); conditions: 320 g/ha, 3 weeks after application
Outline: as §4

wheat [6] = assay: Test Example 5: effect on crop by foliage application, plastic box (symbol e); conditions: 320 g/ha, 3 weeks after application
Outline: (§5)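 Box culture: sterile diluvial soil, seeds spot-sown, ~1.5 cm cover, raised under glass at 25–30° C.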

rapeseed = assay: Test Example 5: effect on crop by foliage application, plastic box (symbol g); conditions: 320 g/ha, 3 weeks after application
Outline: as §5

[7] = application herbicide amount 320 g/ha

Row | Compound | Herbicidal effect grade, B: Scirpus juncoides (Scirpus juncoides) | Herbicidal effect grade, C: Monochoria vaginalis (Monochoria vaginalis [1]) | Herbicidal effect grade, A: Echinochloa oryzacola Vasing. [2] | Herbicidal effect grade, C: Monochoria vaginalis (Monochoria vaginalis [3]) | effect on crop b (directly sowed rice plant), grade 0-5 [4] | K: Lolium multiflorum Lam., herbicidal effect grade (Lolium multiflorum Lam.; [7]) | d: soybean, effect on crop grade (soybean; [7]) | e: wheat, effect on crop grade (wheat [5]; [7]) | f: beet, effect on crop grade (beet; [7]) | I: Avena fatua, herbicidal effect grade (Avena fatua) | N: Amaranthus retroflexus, herbicidal effect grade (Amaranthus retroflexus) | R: Veronica persica, herbicidal effect grade (Veronica persica) | e: wheat, effect on crop grade (wheat [6]) | g: rapeseed, effect on crop grade (rapeseed) | other results
1 | CON=C(C)CC1CC(O)=C(c2c(C)cc(-c3ccc(Cl)cc3)cc2C)C1=O (mixture of isomers) [6-029] | 3 (Herbicidal ratio of 40% or higher and lower than 70%) | 3 (Herbicidal ratio of 40% or higher and lower than 70%) | 5 (Herbicidal ratio of 90% or more (almost completely withered)) | 2 (Herbicidal ratio of 20% or higher and lower than 40%) | 5 (Herbicidal ratio of 90% or more (almost completely withered)) | 5 (Herbicidal ratio of 90% or more (almost completely withered)) | 0 (Herbicidal ratio of 5% or lower (almost no effect)) | 4 (Herbicidal ratio of 70% or higher and lower than 90%) | 0 (Herbicidal ratio of 5% or lower (almost no effect)) | 5 (Herbicidal ratio of 90% or more (almost completely withered)) | 5 (Herbicidal ratio of 90% or more (almost completely withered)) | 4 (Herbicidal ratio of 70% or higher and lower than 90%) | 5 (Herbicidal ratio of 90% or more (almost completely withered)) | 4 (Herbicidal ratio of 70% or higher and lower than 90%) | –
2 | Cc1cc(C)c(C2=C(O)CC(CC(=O)C3CC3)C2=O)c(C)c1 (stereo not drawn) [2-017] | 5 (Herbicidal ratio of 90% or more (almost completely withered)) | 3 (Herbicidal ratio of 40% or higher and lower than 70%) | 5 (Herbicidal ratio of 90% or more (almost completely withered)) | 4 (Herbicidal ratio of 70% or higher and lower than 90%) | 5 (Herbicidal ratio of 90% or more (almost completely withered)) | 5 (Herbicidal ratio of 90% or more (almost completely withered)) | 0 (Herbicidal ratio of 5% or lower (almost no effect)) | 0 (Herbicidal ratio of 5% or lower (almost no effect)) | 0 (Herbicidal ratio of 5% or lower (almost no effect)) | 4 (Herbicidal ratio of 70% or higher and lower than 90%) | 0 (Herbicidal ratio of 5% or lower (almost no effect)) | 0 (Herbicidal ratio of 5% or lower (almost no effect)) | 0 (Herbicidal ratio of 5% or lower (almost no effect)) | 4 (Herbicidal ratio of 70% or higher and lower than 90%) | –
3 | CON=C(C)CC1CC(O)=C(c2c(C)cc(-c3ccc(C(F)(F)F)cc3)cc2C)C1=O (mixture of isomers) [6-016] | 0 (Herbicidal ratio of 5% or lower (almost no effect)) | 0 (Herbicidal ratio of 5% or lower (almost no effect)) | 3 (Herbicidal ratio of 40% or higher and lower than 70%) | 0 (Herbicidal ratio of 5% or lower (almost no effect)) | 5 (Herbicidal ratio of 90% or more (almost completely withered)) | 0 (Herbicidal ratio of 5% or lower (almost no effect)) | 0 (Herbicidal ratio of 5% or lower (almost no effect)) | 0 (Herbicidal ratio of 5% or lower (almost no effect)) | 0 (Herbicidal ratio of 5% or lower (almost no effect)) | 4 (Herbicidal ratio of 70% or higher and lower than 90%) | 0 (Herbicidal ratio of 5% or lower (almost no effect)) | 3 (Herbicidal ratio of 40% or higher and lower than 70%) | 0 (Herbicidal ratio of 5% or lower (almost no effect)) | 1 (Herbicidal ratio of 5% or higher and lower than 20%) | –
4 | CON=C(C)CC1CC(OCC#N)=C(c2c(C)cc(C)cc2C)C1=O (stereo not drawn) [1-013] | 0 (Herbicidal ratio of 5% or lower (almost no effect)) | 0 (Herbicidal ratio of 5% or lower (almost no effect)) | 0 (Herbicidal ratio of 5% or lower (almost no effect)) | 0 (Herbicidal ratio of 5% or lower (almost no effect)) | 0 (Herbicidal ratio of 5% or lower (almost no effect)) | – | – | – | – | 0 (Herbicidal ratio of 5% or lower (almost no effect)) | 0 (Herbicidal ratio of 5% or lower (almost no effect)) | 0 (Herbicidal ratio of 5% or lower (almost no effect)) | 0 (Herbicidal ratio of 5% or lower (almost no effect)) | 4 (Herbicidal ratio of 70% or higher and lower than 90%) | K (Lolium multiflorum Lam.) herbicidal effect grade (Lolium multiflorum Lam.; [7]): 0 (Herbicidal ratio of 5% or lower (almost no effect)); d (soybean) effect on crop grade (soybean; [7]): 0 (Herbicidal ratio of 5% or lower (almost no effect)); e (wheat) effect on crop grade (wheat [5]; [7]): 0 (Herbicidal ratio of 5% or lower (almost no effect)); f (beet) effect on crop grade (beet; [7]): 0 (Herbicidal ratio of 5% or lower (almost no effect))
5 | Cc1cc(C)c(C2=C(O)CC(CC(=O)C3CCCC3)C2=O)c(C)c1 (stereo not drawn) [2-028] | 0 (Herbicidal ratio of 5% or lower (almost no effect)) | 0 (Herbicidal ratio of 5% or lower (almost no effect)) | 3 (Herbicidal ratio of 40% or higher and lower than 70%) | 0 (Herbicidal ratio of 5% or lower (almost no effect)) | 5 (Herbicidal ratio of 90% or more (almost completely withered)) | 5 (Herbicidal ratio of 90% or more (almost completely withered)) | 0 (Herbicidal ratio of 5% or lower (almost no effect)) | 0 (Herbicidal ratio of 5% or lower (almost no effect)) | 0 (Herbicidal ratio of 5% or lower (almost no effect)) | 0 (Herbicidal ratio of 5% or lower (almost no effect)) | 0 (Herbicidal ratio of 5% or lower (almost no effect)) | 0 (Herbicidal ratio of 5% or lower (almost no effect)) | 0 (Herbicidal ratio of 5% or lower (almost no effect)) | 3 (Herbicidal ratio of 40% or higher and lower than 70%) | –
6 | CON=C(C)CC1CC(OS(=O)(=O)C2CC2)=C(c2c(C)cc(C)cc2C)C1=O (stereo not drawn) [1-143] | 4 (Herbicidal ratio of 70% or higher and lower than 90%) | 1 (Herbicidal ratio of 5% or higher and lower than 20%) | 4 (Herbicidal ratio of 70% or higher and lower than 90%) | 3 (Herbicidal ratio of 40% or higher and lower than 70%) | 5 (Herbicidal ratio of 90% or more (almost completely withered)) | – | – | – | – | – | – | – | – | – | K: Lolium multiflorum Lam., herbicidal effect grade (Lolium multiflorum Lam.; 320 g/ha): 4 (Herbicidal ratio of 70% or higher and lower than 90%); d: soybean, effect grade on crop (soybean; 320 g/ha): 0 (Herbicidal ratio of 5% or lower (almost no effect)); e: wheat, effect grade on crop (wheat [5]; 320 g/ha): 2 (Herbicidal ratio of 20% or higher and lower than 40%); f: beet, effect grade on crop (beet; 320 g/ha): 0 (Herbicidal ratio of 5% or lower (almost no effect)); I: Avena fatua, herbicidal effect (criteria 0-5) (Avena fatua): 5 (Herbicidal ratio of 90% or more (almost completely withered)); N: Amaranthus retroflexus, herbicidal effect (criteria 0-5) (Amaranthus retroflexus): 1 (Herbicidal ratio of 5% or higher and lower than 20%); R: Veronica persica, herbicidal effect (criteria 0-5) (Veronica persica): 0 (Herbicidal ratio of 5% or lower (almost no effect)); e: wheat, effect on crop (criteria 0-5) (wheat [6]): 3 (Herbicidal ratio of 40% or higher and lower than 70%); g: rapeseed, effect on crop (criteria 0-5) (rapeseed): 4 (Herbicidal ratio of 70% or higher and lower than 90%)
